These results are taken from patent publication US7041698B2, “Hepatitis C virus inhibitors” (Bristol-Myers Squibb Company, priority 2002, dated 2006).

Read-outs that look alike come from different tables or passages of the source. Where only a bound is given, the exact number is not on record here.

In assay [1] the test system is HCV replicon in Huh7 cells. In words: HCV replicon cell-based assay. Also noted: species or system HCV strain 1B. Particulars: HCV replicon, 4 days, read-out: EC50 range. The procedure, abridged:
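Huh7 cells carrying a genotype 1b subgenomic replicon (NS3-NS5B, neo) treated 4 days at 37° C with compound (0.5% DMSO final). NS3 protease activity read in lysates with 10 μM FRET peptide (340/490 nm, kinetic), giving EC50. Confirmed by Taqman qRT-PCR of HCV RNA and a Renilla luciferase replicon.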

Assay [2] has as its target T1, HCV NS3/4A protease complex (UniProt P27958, C1454S/C1711G, species not given).
T1 construct: fused on or other part: Three-lysine solubilising tail at the C-terminus of NS4A
In words: Recombinant HCV NS3/4A protease complex FRET peptide assay (strain not stated). In kind it is biochemical.

Setting [3] is: HCV NS3/4A protease enzyme assay, read-out: IC50 range.
The mark [4] stands for this setting: read-out: IC50 range, HCV NS3/4A protease enzyme assay.

As a reminder, the EC50 is the concentration needed to bring the measured effect to its halfway point. As for `C=CC1C[C@]1(NC(=O)[C@@H]1C[C@@H](OC(=O)Nc2cc(Cl)ccc2C)CN1C(=O)[C@@H](NC(=O)OC(C)(C)C)C(C)(C)C)C(=O)NS(=O)(=O)C1CC1` (stereo partly drawn) [Compound 20, BocNH-P3(t-BuGly)-P(Hyp(O—CO(NH—(5-chloro-2-methyl-phenyl))))-P1(1R,2S VinylAcca)—CONHSO2Cyclopropane], the EC50 in assay [1] (Hepatitis C virus, Huh-7, 96 h) fell in the range of 1000 to 10000 nM. The IC50 in assay [2] (setting [3]) was less than 100 nM.

Turning to `C=CC1C[C@]1(NC(=O)[C@@H]1C[C@@H](OC(=O)NCc2cccc(F)c2)CN1C(=O)[C@@H](NC(=O)OC(C)(C)C)C(C)(C)C)C(=O)NS(=O)(=O)C1CC1` (stereo partly drawn) [Compound 24, BocNH-P3(t-BuGly)-P2(Hyp(O—CO(NH—(3-fluoro-benzyl))))-P1(1R,2S VinylAcca)—CONHSO2Cyclopropane], in assay [1] (Hepatitis C virus, Huh-7, 96 h), the EC50 was greater than 10000 nM. The IC50 in assay [2] (setting [3]) was in the range of 100 to 1000 nM.

Consider `C=CC1C[C@]1(NC(=O)[C@@H]1C[C@@H](OC(=O)Nc2cccc(C(=O)OCC)c2)CN1C(=O)[C@@H](NC(=O)OC(C)(C)C)C(C)(C)C)C(=O)NS(=O)(=O)C1CC1` (stereo partly drawn) [Compound 28, BocNH-P3(t-BuGly)-P2(Hyp(O—CO(NH—(3-benzoic acid ethyl ester))))-P1(1R,2S VinylAcca)—CONHSO2Cyclopropane], for which, in assay [1] (Hepatitis C virus, Huh-7, 96 h), the EC50 is 1000 to 10000 nM. Further, the IC50 in assay [2] (setting [3]) is 100 to 1000 nM.

As to `C=CC1C[C@]1(NC(=O)[C@@H]1C[C@@H](OC(=O)Nc2ccccc2I)CN1C(=O)[C@@H](NC(=O)OC(C)(C)C)C(C)(C)C)C(=O)NS(=O)(=O)C1CC1` (stereo partly drawn) [Compound 65, BocNH-P3(t-BuGly)-P2(Hyp(O—CO(NH—(2-iodo-phenyl))))-P1(1R,2S VinylAcca)—CONHSO2Cyclopropane], in assay [1] (Hepatitis C virus, Huh-7, 96 h), the EC50 is 100 to 1000 nM. Further, the IC50 in assay [2] (setting [3]) is less than 100 nM.

For `C=CC1C[C@]1(NC(=O)[C@@H]1C[C@@H](OC(=O)N[C@@H]2C[C@H]2c2ccccc2)CN1C(=O)[C@@H](NC(=O)OC(C)(C)C)C(C)(C)C)C(=O)NS(=O)(=O)C1CC1` (stereo partly drawn) [Compound 3, BocNH-P3(t-BuGly)-P(Hyp(O—CO(NH-2(trans)-phenylcyclopropyl)))-P1(1R,2S VinylAcca)—CONHSO2Cyclopropane], in assay [1] (Hepatitis C virus, Huh-7, 96 h), the EC50 lay within 1000 to 10000 nM. In addition, in assay [2] (setting [3]), the IC50 was less than 100 nM.

`C=CC1C[C@]1(NC(=O)[C@@H]1C[C@@H](OC(=O)Nc2ccccn2)CN1C(=O)[C@@H](NC(=O)OC(C)(C)C)C(C)(C)C)C(=O)NS(=O)(=O)C1CC1` (stereo partly drawn) [Compound 75, BocNH-P3(t-BuGly)-P2(Hyp(O—CO(NH—(pyridin-2-yl))))-P1(1R,2S VinylAcca)—CONHSO2Cyclopropane]: in assay [1] (Hepatitis C virus, Huh-7, 96 h), the EC50 was greater than 10000 nM. The IC50 in assay [2] (setting [3]) lay in the range of 100 to 1000 nM.

Turning to `C=CC1C[C@]1(NC(=O)[C@@H]1C[C@@H](OC(=O)N(C)c2ccccc2)CN1C(=O)[C@@H](NC(=O)OC(C)(C)C)C(C)(C)C)C(=O)NS(=O)(=O)C1CC1` (stereo partly drawn) [Compound 1, BocNH-P3(t-BuGly)-P2(Hyp(O—CO(N-methyl,N-phenyl)))-P1(1R,2S VinylAcca)—CONHSO2Cyclopropane], the EC50 in assay [1] (Hepatitis C virus, Huh-7, 96 h) is 1000 to 10000 nM. Further, in assay [2] (setting [3]), the IC50 lay in the range of 100 to 1000 nM.

With `C=CC1C[C@]1(NC(=O)[C@@H]1C[C@@H](OC(=O)Nc2cc(C)ccc2-n2nccn2)CN1C(=O)[C@@H](NC(=O)OC(C)(C)C)C(C)(C)C)C(=O)NS(=O)(=O)C1CC1` (stereo partly drawn) [Compound 97, BocNH-P3(t-BuGly)-P2(Hyp(O—CO(NH—(5-Methyl-2-[1,2,3]triazol-2-yl-phenyl))))-P1(1R,2S VinylAcca)—CONHSO2Cyclopropane], the EC50 in assay [1] (Hepatitis C virus, Huh-7, 96 h) is less than 100 nM. For the same compound, the IC50 in assay [2] (setting [3]) was less than 100 nM.

As to `C=CC1C[C@]1(NC(=O)[C@@H]1C[C@@H](OC(=O)Nc2ccccc2-n2cccc2)CN1C(=O)[C@@H](NC(=O)OC(C)(C)C)C(C)(C)C)C(=O)NS(=O)(=O)C1CC1` (stereo partly drawn) [Compound 86, BocNH-P3(t-BuGly)-P2(Hyp(O—CO(NH—(2-pyrrol-1-yl-phenyl))))-P1(1R,2S VinylAcca)—CONHSO2Cyclopropane], the EC50 in assay [1] (Hepatitis C virus, Huh-7, 96 h) was 100 to 1000 nM. Moreover, the IC50 in assay [2] (setting [3]) was less than 100 nM.

Take `C=CC1C[C@]1(NC(=O)[C@@H]1C[C@@H](OC(=O)Nc2sc3c(c2C(=O)OCC)CCCC3)CN1C(=O)[C@@H](NC(=O)OC(C)(C)C)C(C)(C)C)C(=O)NS(=O)(=O)C1CC1` (stereo partly drawn) [Compound 49, BocNH-P3(t-BuGly)-P2(Hyp(O—CO(NH-2-(4,5,6,7-tetrahydro-benzo[b]thiophene-3-carboxylic acid ethyl ester))))-P1(1R,2S VinylAcca)—CONHSO2Cyclopropane]: in assay [1] (Hepatitis C virus, Huh-7, 96 h), the EC50 lay within 1000 to 10000 nM. Also, the IC50 in assay [2] (setting [3]) was 100 to 1000 nM.

On to `C=CC1C[C@]1(NC(=O)[C@@H]1C[C@@H](OC(=O)N(CC)CC)CN1C(=O)[C@@H](NC(=O)OC(C)(C)C)C(C)(C)C)C(=O)NS(=O)(=O)C1CC1` (stereo partly drawn) [Compound 44, BocNH-P3(t-BuGly)-P2(Hyp(O—CO(N,N-diethyl)))-P1(1R,2S VinylAcca)—CONHSO2Cyclopropane], for which the concentration giving a half-maximal response (EC50) in assay [1] (Hepatitis C virus, Huh-7, 96 h) was in the range of 1000 to 10000 nM. Also, the IC50 in assay [2] (setting [4]) is less than 100 nM.

Regarding `C=CC1C[C@]1(NC(=O)[C@@H]1C[C@@H](OC(=O)Nc2cc(C)ccc2-n2cccc2)CN1C(=O)[C@@H](NC(=O)OC(C)(C)C)C(C)(C)C)C(=O)NS(=O)(=O)C1CC1` (stereo partly drawn) [Compound 83, BocNH-P3(t-BuGly)-P2(Hyp(O—CO(NH—(5-Methyl-2-pyrrol-1-yl-phenyl))))-P1(1R,2S VinylAcca)—CONHSO2Cyclopropane], the EC50 in assay [1] (Hepatitis C virus, Huh-7, 96 h) is less than 100 nM. Further, the IC50 in assay [2] (setting [3]) is less than 100 nM.

Regarding `C=CC1C[C@]1(NC(=O)[C@@H]1C[C@@H](OC(=O)N(C)C)CN1C(=O)[C@@H](NC(=O)OC(C)(C)C)C(C)(C)C)C(=O)NS(=O)(=O)C1CC1` (stereo partly drawn) [Compound 43, BocNH-P3(t-BuGly)-P2(Hyp(O—CO(N,N-dimethyl)))-P1(1R,2S VinylAcca)—CONHSO2Cyclopropane], the EC50 in assay [1] (Hepatitis C virus, Huh-7, 96 h) is greater than 10000 nM. Also, the IC50 in assay [2] (setting [4]) lay within 100 to 1000 nM.

For the compound `C=CC1C[C@]1(NC(=O)[C@@H]1C[C@@H](OC(=O)Nc2ccccc2C(C)=O)CN1C(=O)[C@@H](NC(=O)OC(C)(C)C)C(C)(C)C)C(=O)NS(=O)(=O)C1CC1` (stereo partly drawn) [Compound 79, BocNH-P3(t-BuGly)-P2(Hyp(O—CO(NH—(2-acetophenone))))-P1(1R,2S VinylAcca)—CONHSO2Cyclopropane], the EC50 in assay [1] (Hepatitis C virus, Huh-7, 96 h) lay within 100 to 1000 nM. The IC50 in assay [2] (setting [3]) was less than 100 nM.

On to `C=CC1C[C@]1(NC(=O)[C@@H]1C[C@@H](OC(=O)Nc2cc(C)cc(C)c2)CN1C(=O)[C@@H](NC(=O)OC(C)(C)C)C(C)(C)C)C(=O)NS(=O)(=O)C1CC1` (stereo partly drawn) [Compound 50, BocNH-P3(t-BuGly)-P2(Hyp(O—CO(NH—(3,5-dimethyl-phenyl))))-P1(1R,2S VinylAcca)—CONHSO2Cyclopropane], for which the EC50 in assay [1] (Hepatitis C virus, Huh-7, 96 h) lay within 1000 to 10000 nM. Moreover, the IC50 in assay [2] (setting [3]) was less than 100 nM.

As for `C=C[C@@H]1C[C@]1(NC(=O)[C@@H]1C[C@@H](OC(=O)Nc2ccccc2C(=O)OCC)CN1C(=O)[C@@H](NC(=O)OC)C(C)(C)C)C(=O)NS(=O)(=O)C1CC1` [Compound 110], the EC50 in assay [1] (Hepatitis C virus, Huh-7, 96 h) was 100 to 1000 nM. The IC50 in assay [2] (setting [3]) was less than 100 nM.

As for `C=CC1C[C@]1(NC(=O)[C@@H]1C[C@@H](OC(=O)Nc2ccccc2/C(=N/O)c2ccccc2)CN1C(=O)[C@@H](NC(=O)OC(C)(C)C)C(C)(C)C)C(=O)NS(=O)(=O)C1CC1` (single isomer, unassigned) [Compound 77a], the EC50 in assay [1] lay in the range of 1000 to 10000 nM. The IC50 in assay [2] (setting [3]) was 100 to 1000 nM.

As for `C=CC1C[C@]1(NC(=O)[C@@H]1C[C@@H](OC(=O)Nc2ccccc2C(=O)c2ccccc2)CN1C(=O)[C@@H](NC(=O)OC(C)(C)C)C(C)(C)C)C(=O)NS(=O)(=O)C1CC1` (stereo partly drawn) [Compound 74, BocNH-P3(t-BuGly)-P2(Hyp(O—CO(NH—(2-benzophenone))))-P1(1R,2S VinylAcca)—CONHSO2Cyclopropane], the EC50 in assay [1] (Hepatitis C virus, Huh-7, 96 h) lay within 100 to 1000 nM. In addition, the IC50 in assay [2] (setting [3]) was less than 100 nM.
